Common to all, as to assay: NCI tumour cell line growth inhibition, 48 h
Experiment [1] relates to PC-3 prostate.
The subject of experiment [2] is DU-145 prostate.
Experiment [3] deals with SK-OV-3 ovarian.
Experiment [4] relates to HCC-2998 colon.
Experiment [5] concerns SF-539 CNS.
In experiment [6] the test system is OVCAR-4 ovarian.
In experiment [7] the test system is SNB-75 CNS.
Experiment [8] relates to EKVX NSCLC.
Experiment [9] deals with MDA-MB-231 breast.
Experiment [10] deals with NCI-H226 lung.

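Test compounds were applied to cells in 96-well plates for 48 hours at 5 doses. At the GI50, growth is halved. TGI: concentration producing complete growth inhibition.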

On to `COc1ccc(/C(C)=C(\c2ccc(Cl)cc2)c2ccc(OCCN3CCCC3)cc2)cc1F`, for which the GI50 in [1] is 3.04 µM; in [2], 3.9 µM; in experiment [3] it was 4.18 µM; in [4], 3.44 µM; in [5] it was 2.74 µM; in experiment [6], 3.21 µM. The GI50 in experiment [7] is 4.42 µM; in [8] it was 3.73 µM; in [9], 3.56 µM; in experiment [10] it was 4.47 µM. In addition, the TGI is 6.71 µM in experiment [1]; 8.28 µM in [2]; 7.86 µM in experiment [3]; 6.94 µM in experiment [4]; 5.75 µM in experiment [5]; 6.62 µM in [6]. In addition, the TGI came to 8.22 µM in experiment [7], 7.27 µM in [8], 6.97 µM in experiment [9] and 8.88 µM in [10].
Turning to `O=C1C(=O)c2ccccc2-c2ccccc21`, the GI50 in experiment [1] was 1.31 µM; in experiment [2], 1.68 µM; in experiment [3], 1.73 µM; in [4], 1.99 µM; in experiment [5], 1.6 µM; in [6] it was 1 µM. The GI50 was 1.51 µM in [7], 1.81 µM in [8], 1.42 µM in experiment [9] and 1.72 µM in experiment [10]. Also, the TGI in [1] was 2.79 µM; in [2] it was 3.07 µM; in [3] it was 3.25 µM; in [4], 3.52 µM; in [5], 2.99 µM; in experiment [6], 2.25 µM. The TGI in experiment [7] is 2.9 µM; in [8], 3.25 µM; in [9] it was 3.19 µM; in [10], 3.18 µM.
